Entries after “also recorded” stand apart in the source; their conditions may differ. Read-outs that look alike come from different tables or passages of the source.
Experiments:
NCl 60 cell panel = assay: NCI 60 cell line panel antitumour activity (whole panel); assay type: cell-based, human; conditions: for GI50: MGMID line of the panel, read-out: anti-tumour activity GI50, MGMID; for antitumour activity in the NCl 60 cell line panel (in words): wide range of human tumour cell lines
From the text: (§1) Examples 6 and 7 make use of the NCl 60 cell panel. This is an in vitro cell line screening project providing direct support to the National Cancer Institute's USA Developmental Therapeutic Programme for anti cancer discovery. The methodolgy for the cell line's operation is described by Boyd et al in Drug Development Research 1995, 34, 91-109.

A498 = assay: NCI 60 cell panel growth inhibition; assay type: cell-based, human; conditions: RENAL, read-out: anti-tumour activity GI50
From the text: as §1

COLO 205 = assay: NCI 60 cell panel growth inhibition; assay type: cell-based, human; conditions: COLON, read-out: anti-tumour activity GI50
From the text: as §1

DU-145 = assay: NCI 60 cell panel growth inhibition; assay type: cell-based, human; conditions: PROST, read-out: anti-tumour activity GI50
From the text: as §1

HS 578T = assay: NCI 60 cell panel growth inhibition; assay type: cell-based, human; conditions: BREAST, read-out: anti-tumour activity GI50
From the text: as §1

NCI/ADRRES = assay: NCI 60 cell panel growth inhibition; assay type: cell-based, human; conditions: BREAST, read-out: anti-tumour activity GI50
From the text: as §1

SNB-19 = assay: NCI 60 cell panel growth inhibition; assay type: cell-based, human; conditions: CNS, read-out: anti-tumour activity GI50
From the text: as §1

SR = assay: NCI 60 cell panel growth inhibition; assay type: cell-based, human; conditions: Leukemia, read-out: anti-tumour activity GI50
From the text: as §1

HCT-15 = assay: NCI 60 cell panel growth inhibition; assay type: cell-based; conditions: Homo sapiens, COLON, read-out: anti-tumour activity GI50
From the text: as §1

SNB-75 = assay: NCI 60 cell panel growth inhibition; assay type: cell-based; conditions: Homo sapiens, CNS, read-out: anti-tumour activity GI50
From the text: as §1

[1] = tested on: linear double stranded plasmid pUC18 DNA; assay: DNA crosslinking; assay type: biochemical; conditions: for EC50: read-out: CR50 (concentration at which 50% of the duplex is crosslinked)
Method: Plasmid DNA pUC 18 was linearised by digestion with Hind III. The linear DNA was then dephosphorylated with BAP and ^32P-radiolabelled on the 5′-end. The DNA was then purified by EtOH precipitation to remove unincorporated γ-^32P ATP and the DNA resuspended in sterile double distilled H2O. To each reaction sample was added ^32P-end labelled DNA and drug at the appropriate concentration. Following incubation at 37° C. for the required time, the reaction was terminated by the addition of Stop Solution Buffer. The DNA-drug adduct was EtOH precipitated and dried by lyophilisation. Each dried DNA sample including an untreated DNA single strand as a control was denatured by resuspending in alkali denaturing buffer. The double stranded control DNA was then dissolved in sucrose loading buffer and the samples loaded and electrophoresed on a 20 cm long 0.8% horizontal agarose gel submerged in 1×TAE buffer at 40 V for 16 h. Gels were then dried and autoradiographed
Compound 20 which consists of both the epoxide and mustard functionality was tested at concentrations between 0.1 and 50 μM at 1 h, 2 h and 3 h intervals. […] Crosslink formation starts at concentrations as low as 0.1 μM and reaches 100% crosslinking at −10 μM. After incubation for an hour the CR50 (concentration at which 50% of the duplex is crosslinked) was determined to be 3.1 μM. The percentage of crosslinked DNA was determined from autoradiograph densitometry.

Structure (SMILES): C=C(C)[C@H](OC(=O)c1cc(OC)cc2c(C)cccc12)C(=O)NCCN1CCCC(Cl)C1 (stereo partly drawn) [Compound 21]
- GI50 (NCl 60 cell panel; Homo sapiens, 60 cell): 5.12 µM
- antitumour activity in the NCl 60 cell line panel (in words) (NCl 60 cell panel): significant cytotoxicity in the low micromolar range
- GI50 (A498; Homo sapiens): 0.19 µM
- GI50 (COLO 205; Homo sapiens): 6.08 µM
- GI50 (DU-145; Homo sapiens): 5.15 µM
- GI50 (HS 578T; Homo sapiens): 3.69 µM
- GI50 (NCI/ADRRES; Homo sapiens, NCI/ADR-RES): 12.8 µM
- GI50 (SNB-19; Homo sapiens): 5.63 µM
- GI50 (SR; Homo sapiens): 2.34 µM
- GI50 (HCT-15): 0.049 µM
- GI50 (SNB-75): 1.2 µM

Structure (SMILES): COc1cc(C(=O)OC(C(=O)NCCN2CCCC(Cl)C2)C2(C)CO2)c2cccc(C)c2c1 (stereo not drawn) [Compound 20]
- concentration at which crosslink formation starts ([1]; 1 h incubation): 0.1 µM
- EC50 ([1]; 1 h incubation, 37° C.): 3.1 µM
- EC50 ([1]; 2 h incubation): 2.7 µM
- EC50 ([1]; 3 h incubation): 2.2 µM
- GI50 (NCl 60 cell panel): 12.3 µM
- antitumour activity in the NCl 60 cell line panel (in words) (NCl 60 cell panel): low micromolar to high nanomolar activity; also recorded: significant cytotoxicity in the low micromolar range
- GI50 (A498): 17.7 µM
- GI50 (COLO 205): 13.8 µM
- GI50 (DU-145): 4.49 µM
- GI50 (HS 578T): 17.5 µM
- GI50 (NCI/ADRRES): 11.1 µM
- GI50 (SNB-19): 14.3 µM
- GI50 (SR): 2.02 µM

From US20090233966A1, “Analogues of the Azinomycins as Anti-Tumour Agents and as Prodrugs” (School of Pharmacy, University of London, priority 2005, published 2009)
